Reference: PubChem BioAssay AID434987 (Southern Research Specialized Biocontainment Screening …, 2010)
pIC50: −log10 of the molar value. Activity calls are given as the source filed them. How the calls were made is not given here.

Tested on: M. tuberculosis H37Rv growth inhibition with meropenem
Experiment: dose response, H37Rv, with and without meropenem (AID 434987);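 further: growth over 7 days at 37 °C before Alamar Blue read on day 9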
[1] = M. tuberculosis H37Rv growth inhibition, measured here: IC50 without meropenem
[2] = M. tuberculosis H37Rv growth inhibition, measured here: IC90 without meropenem
[3] = measured here: IC90 with meropenem

| Structure (SMILES) | IC50 | pIC50 [1] | IC90 [2] [µM] | IC90 [3] [µM] | pIC50 |
| --- | --- | --- | --- | --- | --- |
| COc1ccc(NC(=O)CCC2CCCC2)cc1OC | > 100 µM (inactive) | < 4.00 | > 100 | > 100 |  |
| Nc1ccc(N=Nc2ccccc2O)c(N)c1 |  | 4.47 | > 100 | 34 | 5.18 |
| CCN1C(=O)[C@@H]2[C@@H](c3ccc(-c4ccc(Cl)c(Cl)c4)c(OC)c3)N3CCC[C@@]3(C(=O)OC)[C@@H]2C1=O | > 100 µM (inactive) | < 4.00 | > 100 | > 100 |  |
| O=C(Nc1ccc(C(F)(F)F)cc1)c1cc(-c2cccnc2)nc2ccc(Br)cc12 | > 100 µM (inactive) | < 4.00 | > 100 | > 100 |  |
| Cc1ccc(C(=O)Nc2c(C)cc(C)c3cccnc23)cc1 |  | 4.99 | > 50 | 10.5 | 5.62 |
| NS(=O)(=O)c1ccc(Sc2nc3ccccc3s2)c([N+](=O)[O-])c1 | > 100 µM (inactive) | < 4.00 | > 100 | > 100 |  |
| Cc1cccc(C)c1NC(=O)C1CC2CCC1C2 (configuration not stated) | > 100 µM (inactive) | < 4.00 | > 100 | > 100 |  |
| CCN(CC(=O)Nc1ccc2c(c1)OCCO2)C(=O)c1ccc([N+](=O)[O-])s1 | 23.6 µM (inactive) | 4.57 | 50.7 | 26 |  |
| CCCCOc1ccccc1NC(=O)c1ccco1 | > 100 µM (inactive) | < 4.00 | > 100 | > 100 |  |
| COc1ccc(NC(=O)CSc2nc(N)c(C(=O)Nc3ccc(N(C)C)cc3)s2)cc1 |  | < 4.00 | > 100 | > 100 | 4.64 |
| CCOC(=O)C1CCCN(c2ccc(NC(=O)c3snc4c(=O)[nH]cnc34)cc2)C1 (configuration not stated) |  | 4.23 | > 100 | > 100 | 4.89 |
| COc1ccc(NC(C)C(=O)N/N=C/c2ccc([N+](=O)[O-])s2)cc1 (configuration not stated) | 2.17 µM (inactive) | 5.51 | 4.8 | 4.79 |  |
| COC(=O)c1c(C)n(-c2ccc(C)cc2)c2ccc(O)cc12 | > 100 µM (inactive) | < 4.00 | > 100 | > 100 |  |
| CSc1nsc(SC)c1NC(=O)OCc1ccccc1 |  | < 4.00 | > 100 | > 100 | 4.49 |
| Cc1cc(C)c2oc(-c3ccc(Cl)c(NC(=O)c4ccc(C#N)cc4F)c3)nc2c1 | > 100 µM (inactive) | < 4.00 | > 100 | > 100 |  |
| CC(C)(C)C1=Nn2c(nnc2-c2ccccc2F)SC1 |  | < 4.00 | > 100 | 78.3 | 4.76 |
| COc1cccc(NC(=O)C2CC2)c1 |  | < 4.00 | > 100 | > 100 | 5.22 |
| CCOc1ccc2nc(SC3CC(=O)N(c4ccc(OC)cc4)C3=O)sc2c1 (configuration not stated) | > 100 µM (inactive) | < 4.00 | > 100 | > 100 |  |
| COc1cccc(/C=N/NC(N)=S)c1OS(=O)(=O)c1ccccc1 |  | < 4.00 | > 100 | > 25 | 4.72 |
| CCOc1cccc(=O)c2c(C)n(Cc3ccccc3)c(C)c12 | > 100 µM (inactive) | < 4.00 | > 100 | > 100 |  |

| Structure (SMILES) | IC50 | pIC50 [1] | IC90 [2] [µM] | IC90 [3] [µM] | pIC50 |
| --- | --- | --- | --- | --- | --- |
| COc1ccc(C(=O)NC(=S)Nc2ccc(S(=O)(=O)Nc3cc(C)on3)cc2)cc1OC |  | 4.44 | > 100 | 29 | 4.86 |
| CCC(=O)NC(=S)Nc1ccc(NC(=O)c2ccc(C)c([N+](=O)[O-])c2)cc1 | > 100 µM (inactive) | < 4.00 | > 100 | > 100 |  |
| CCOCC(=O)Nc1ccc(F)c(F)c1 | 81.2 µM (inactive) | 4.02 | > 100 | > 100 |  |
| Cc1nc(SCC(=O)Nc2ccc(F)cc2)c(C#N)c(C)c1CC(=O)c1ccc(Br)cc1 | > 100 µM (inactive) | < 4.00 | > 100 | > 100 |  |
| Cc1c(NC(=O)c2noc3c2CCc2ccccc2-3)c(=O)n(-c2ccccc2)n1C |  | < 4.00 | > 100 | > 50 | 4.55 |
| CC(=O)Nc1cccc(/C(C)=N/NC(N)=S)c1 |  | < 4.00 | > 100 | 28.6 | 5.10 |
| C=CCC(Nc1ccccc1)C12C=CC(O1)C(C(=O)OC)=C2C(=O)OC (configuration not stated) | > 100 µM (inactive) | < 4.00 | > 100 | > 100 |  |
| O=S1(=O)CCO[C@H]2Cc3ccccc3[C@H]2N1Cc1ccccc1 | > 100 µM (inactive) | < 4.00 | > 100 | > 100 |  |
| Cc1ccc(C2=NN3C(=O)c4ccccc4C3C2)cc1 (configuration not stated) |  | 4.31 | > 100 | 35.1 | 4.95 |
| O=C(Nc1nnc(-c2ccccc2SCc2ccccc2F)s1)Nc1ccccc1F | > 100 µM (inactive) | < 4.00 | > 100 | > 100 |  |
| Nc1c2c(nc3sc4c(c13)CCCC4)-c1ccccc1CC2 |  | < 4.00 | > 100 | > 100 | 5.21 |
| O=C(OCn1nnc2ccccc2c1=O)c1ccc2c(=O)n3c(nc2c1)CCC3 | 18 µM (inactive) | 4.45 | > 100 | 26.1 |  |
| COC(=O)N1C(=O)[C@](Cc2ccccc2)(c2ccccc2)N1C(=O)OC | > 100 µM (inactive) | < 4.00 | > 100 | > 100 |  |
| C/C(=N/NC(=O)c1cccs1)c1c(C)[nH]n(-c2nc3ccccc3s2)c1=O | 1.44 µM (inactive) | 5.82 | 1.69 | 1.58 |  |
| CC(OC(=O)c1ccc([N+](=O)[O-])o1)C(=O)NC1CCCCC1C (configuration not stated) | 15.6 µM (inactive) | 4.58 | 70.6 | > 100 |  |
| Cc1cc(C)c2sc(N(CCCN(C)C)C(=O)COc3ccc(Cl)cc3)nc2c1 | 36.6 µM (inactive) | 4.27 | 80.2 | > 100 |  |
| NNC(=O)c1oc2nc(-c3ccco3)cc(-c3ccco3)c2c1N | 13.6 µM (inactive) | 4.62 | > 100 | > 100 |  |
| CC(C)c1ccc(/C=C/C(=O)NC2CCCCC2)cc1 |  | < 4.00 | > 100 | > 100 | 4.42 |
| CCCCCc1nnc(NC(=O)C2COc3ccccc3O2)s1 (configuration not stated) | 62.5 µM (inactive) | < 4.00 | > 100 | > 100 |  |
| CCc1ccc2c(c1)C(c1ccc([N+](=O)[O-])cc1)=NNC(c1ccc(C)cc1)=N2 | > 100 µM (inactive) | < 4.00 | > 100 | > 100 |  |

| Structure (SMILES) | IC50 | pIC50 [1] | IC90 [2] [µM] | IC90 [3] [µM] | pIC50 |
| --- | --- | --- | --- | --- | --- |
| c1ccc(-c2oc3ncnc(NCCN4CCOCC4)c3c2-c2ccccc2)cc1 | > 100 µM (inactive) | < 4.00 | > 100 | > 100 |  |
| CC(NC(=O)CSc1nc2ccccc2c(=O)[nH]1)c1ccccc1 (configuration not stated) | 18.9 µM (inactive) | 4.62 | > 100 | 60.9 |  |
| Cn1c(=S)[nH]c2sc3c(c2c1=O)CCC(C(C)(C)C)C3 (configuration not stated) | 38 µM (inactive) | 4.10 | > 100 | > 100 |  |
| O=[N+]([O-])c1cc(Cl)cc(/C=N/NC(=S)Nc2cc(S(=O)(=O)N3CCOCC3)ccc2Cl)c1O |  | 4.74 | 30.5 | 29.3 | 5.20 |
| Cc1ccn2c(CNCCn3nc(C)cc3C)c(C(=O)N3CCCCCC3)nc2c1 | > 100 µM (inactive) | < 4.00 | > 100 | > 100 |  |
| O=C(CSc1nnc(SCc2ccc(Cl)cc2)s1)c1ccc2c(c1)OCO2 | > 100 µM (inactive) | < 4.00 | > 100 | > 100 |  |
| CCCCCn1c(=O)c(C(=O)NCc2ccncc2)c(O)c2ccccc21 | 35.3 µM (inactive) | 4.09 | > 100 | > 100 |  |
| COC(=O)CNC(c1ccccc1Cl)c1cc(Br)ccc1NC(=O)CCN1CCOCC1 (configuration not stated) |  | 4.31 | 53.7 | 34.3 | 4.70 |
| O=C(N/N=C/c1ccc([N+](=O)[O-])o1)c1ccccc1-n1cccc1 |  | 4.86 | 35 | 29.4 | 5.32 |
| c1ccc(-c2ccc(C3=Nn4c(Cn5nnc6ccccc65)nnc4SC3)cc2)cc1 | 53.5 µM (inactive) | 4.07 | > 100 | > 100 |  |
| Cc1cccc(NC(=O)c2nc[nH]c2C(=O)N[C@@H](CC(C)C)C(=O)OCc2ccccc2)c1 |  | 4.58 | 51.8 | > 100 | 5.03 |
| C/C(=N\NC(=O)c1csc2ccccc12)c1ccc(O)cc1 | > 100 µM (inactive) | < 4.00 | > 100 | > 100 |  |
| CCSc1nnc(NC(=O)CSc2nccn2-c2cccc(C)c2)s1 | > 100 µM (inactive) | < 4.00 | > 100 | > 100 |  |
| N#Cc1c(NC(=O)CSc2nc(-c3ccco3)cc(C(F)(F)F)n2)sc2c1CCCC2 | > 100 µM (inactive) | < 4.00 | > 100 | > 100 |  |
| Cc1ccc2occ(/C=C/C(=O)c3ccccc3O)c(=O)c2c1 | 50.2 µM (inactive) | < 4.00 | > 100 | > 100 |  |
| C=CCn1cc(C(=O)NCCCOC)c(=O)c2cc(S(=O)(=O)N(CC)CC)ccc21 | 99.9 µM (inactive) | < 4.00 | > 100 | > 100 |  |
| O=C(Nc1ccccc1)Nc1csc2ccccc12 |  | 4.62 | > 100 | 20.9 | > 6.70 |
| CSc1nnc(C)c(/C=C/Nc2ccc(Cl)cc2)n1 | 94 µM (inactive) | 4.02 | > 100 | > 100 |  |
